According to patent publication US6900019B1, “In-situ cell extraction and assay method” (Amersham Biosciences UK Limited, priority 1997, dated 2005):

Experiments:
[1] = tested on: Mouse 3T3 cells; assay: Intracellular prostaglandin E2 in A23187-stimulated mouse 3T3 cells (EIA); assay type: cell-based; settings: 100 μM A23187, 5 minutes
Protocol: Mouse 3T3 cells were cultured in DMEM media containing 10% (v/v) foetal calf sera (FCS). For PGE2 assays, cells were seeded into standard 96-well tissue culture plates in 100 μl volumes (between 10^5-10^6 cells/ml). Cells were cultured overnight at 37° C. in a 95% air/5% CO2 atmosphere. At this stage a check was made to ensure cells remained viable with Trypan blue exclusion.
On day 2, working solutions of A23187 (1-100 μM final concentration) were prepared in DMEM media in order to stimulate the production of PGE2. Two controls were prepared (a DMSO and a culture media only control). Here cells were cultured in the absence of A23187. Test cell cultures were stimulated with the calcium ionophore A23187 for 5 minutes at room temperature. The culture supernatant was decanted, cells were washed with phosphate buffered saline and lysed with 100 μl/well 0.5% (w/v) DTAB prepared in assay buffer. A check for cell lysis was made with a second Trypan blue exclusion test.
Working PGE2 standards (2.5-320 pg/well) were prepared in polypropylene tubes with assay buffer containing 0.5% (w/v) DTAB. […] Non-specific binding was measured in the absence of PGE2 antisera. […] The optical densities were determined with a microtitre plate spectrophotometer set at 450 nm. Intracellular PGE2 levels were determined using log/linear analysis with reference to a standard curve. […]

[2] = tested on: ECV304 cells; assay: Intracellular IL-6 from IL-1β stimulated ECV304 cells (ELISA); assay type: cell-based, human; settings: 500 pg/ml IL-1β overnight
Protocol: ECV304 cells were cultured in M-199 media containing 10% (v/v) foetal calf sera (FCS). For IL-6 assays, cells were seeded into standard 96-well tissue culture plates in 100 μl volumes (between 10^5-10^6 cells/ml). Cells were cultured overnight at 37° C. in a 95% air/5% CO2 atmosphere. On day 2 working solutions of IL-1β (2-500 pg/ml; final concentration) were prepared in M-199 media in order to stimulate the production of IL-6. A culture media blank was prepared with cultured cells grown in the absence of IL-1β. Cells were again cultured overnight at 37° C. in a 95% air/5% CO2 atmosphere. On day 3, a 1% (wt) solution of DTAB was prepared in standard diluent. […]
Working standards (10.24400 pg/ml IL-6) were prepared in polypropylene tubes using assay buffer containing 1% (w/v) DTAB. […] Non-specific binding was measured in the absence of IL-6 (zero IL-6 standard). […] The optical density was determined with a microtitre plate spectrophotometer set at 450 nm. Interleukin-6 levels were determined using log/linear analysis with reference to a standard curve. […]
ECV304 cells were seeded at a density of 100,000 cells per well and cultured overnight to confluence in standard 96-well tissue culture plates as described under the methods section. […] Levels of IL-6 were measured in the samples with ELISA (the biotinylated antibody was prepared in the presence of 3% (w/v) alpha-cyclodextrin).

| Compound | Intracellular PGE2 levels [1] | Intracellular IL-6 levels [2] |
| --- | --- | --- |
| CNc1ccc2oc(C[C@H]3O[C@@]4(CC[C@H]3C)O[C@H]([C@H](C)C(=O)c3ccc[nH]3)[C@H](C)C[C@H]4C)nc2c1C(=O)O [A23187] | over 400 pg/10^6 cells | – |
| IL-1β: Interleukin-1β (Amersham, ARM 17005), used to stimulate the production of IL-6 | – | over 400 pg/10^6 cells |
